From patent publication US11034719B2, “7-dehydrocholesterol derivatives and methods using same” (University of Rochester, priority 2014, dated 2021)

Tests used:
SKOV-3 cells [1] = assay: inhibition of lipid synthesis in SKOV-3 cells (HPLC of extracted lipids); type: cell-based; settings: 500 nM, serum free
Description: Approximately 3 million cells in serum free conditions were treated with Compound (3) (500 nM). Media was removed, and cells were washed with PBST, trypisinized and collected after centrifugation at 1,000 rpm. The cell pellet was washed with PBST and treated with methanolic HCl for 1 hour. The methanol was removed, and cells were suspended in water and extracted with chloroform. The collected chloroform layer was evaporated with a gentle nitrogen stream, and the residue was analyzed by HPLC.

[2] = test system: panel of cancer cell lines; assay: ascorbic acid pretreatment, MTS viability in a panel of cancer cell lines; type: cell-based; settings: ascorbic acid pretreatment 3 hours
Description: Cell lines derived from ovarian cancer, endometrial cancer, breast cancer, prostate cancer and neuroblastoma (5,000 cells/well) were seeded in complete DMEM (supplemented with 10% fetal bovine serum and 1% antibiotic) and allowed to adhere over night. Cells were pretreated with […] of acrorbic acid in 50 μL DMEM media for 3 hours. To the existing media was added DMEM media containing varying concentrations of 2× concentration of Compound (3). DMSO was used as control. At suitable intervals (varying from 1 minute to 4 days), the media was replaced again with complete RPMI (supplemented with 10% fetal bovine serum and 1% antibiotic) containing MTS dye (Invitrogen Inc) and incubated for period (varying from 10 min to 1 day). The absorbance of the media was read at varying wavelengths, advantageously at 492 nm, in an ELISA reader.

VDR-LBD = target: T1, VDR-LBD (Homo sapiens, UniProt P11473)
T1 sequence (P11473 127-423 limits assumed): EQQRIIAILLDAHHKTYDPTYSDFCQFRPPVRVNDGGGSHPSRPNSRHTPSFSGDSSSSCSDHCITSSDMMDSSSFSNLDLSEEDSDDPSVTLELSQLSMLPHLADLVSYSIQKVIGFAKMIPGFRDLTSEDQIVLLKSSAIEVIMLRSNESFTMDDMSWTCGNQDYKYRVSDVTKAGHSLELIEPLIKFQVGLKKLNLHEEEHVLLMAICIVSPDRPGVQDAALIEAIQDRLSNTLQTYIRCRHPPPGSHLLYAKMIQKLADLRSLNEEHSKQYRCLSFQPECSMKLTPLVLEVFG
Description: VDR antagonists disrupt this interaction by a direct or allosteric mode of inhibition.

DAOY cells xenograft = assay: medulloblastoma (DAOY) xenograft in nude mice; type: in vivo; settings: 10 mg/kg bwt i.p., 5× week, 15 days
Description: Animal experiments were carried out in the animal facilities of Rhode Island Hospital (RIH), Rhode Island, USA with strict adherence to the guidelines of the Animal Welfare Committee of Rhode Island Hospital (RIH) and Women and Infants Hospital of Rhode Island (Laboratory Animal Protection Approval: A3922-01). Four to six week-old immunodeficient nude mice (NU/NU; strain code 088/homozygous) (Charles River Laboratories, Wilmington, Mass.) were maintained at a temperature of ˜22° C. and a relative humidity of ˜55%, with a 12 h light/dark cycle. DAOY cells were cultured to 80% confluence, washed in PBS twice, harvested by trypsination, pooled in complete medium, washed in PBS twice, and 1×10^6 cells/inoculate were suspended in 0.1 ml of matrigel and inoculated subcutaneously in the flank of mice. Mice with developing tumors after two weeks were randomly assigned to experimental groups. Mice were treated intraperitoneally every day with either vehicle control (control group; 6 animals) or MeTC7 (n=5, 10 mg/kg bwt, 5× week) for 15 days. Mice were weighed and tumor size were measured using a digital caliper every 5th days.

A2058 cells xenograft = assay: melanoma (A2058) xenograft in nude mice; type: in vivo; settings: 10 mg/kg bwt i.p., 5× week, 15 days
Description: Animal experiments were carried out in the animal facilities of Rhode Island Hospital (RIH), Rhode Island, USA with strict adherence to the guidelines of the Animal Welfare Committee of Rhode Island Hospital (RIH) and Women and Infants Hospital of Rhode Island (Laboratory Animal Protection Approval: A3922-01). Four to six week-old immunodeficient nude mice (NU/ NU; strain code 088/homozygous) (Charles River Laboratories, Wilmington, Mass.) were maintained at a temperature of ˜22° C. and a relative humidity of ˜55%, with a 12 h light/dark cycle. A2058 cells were cultured to 80% confluence, washed in PBS twice, harvested by trypsination, pooled in complete medium, washed in PBS twice, and 1×10^6 cells/inoculate were suspended in 0.1 ml of matrigel and inoculated subcutaneously in the flank of mice. Mice with developing tumors after two weeks were randomly assigned to experimental groups. Mice were treated intraperitoneally every day with either vehicle control (control group; 7 animals) or MeTC7 (10 mg/kg bwt, 5× week) for 15 days. Mice were weighed and tumor size were measured using a digital caliper every 5th days. The percent of animals with tumor size less than 15 mm was calculated by Kaplan-Meier Analysis.

SKOV-3 cells [3] = assay: MTS cell viability assay, SKOV-3; type: cell-based; settings: FIG. 1 / FIG. 2
Description: SKOV-3 cells were seeded (5,000 cells/well) in complete DMEM (supplemented with 10% fetal bovine serum and 1% antibiotic) and allowed to adhere overnight. Media was replaced with a fresh complete DMEM media containing varying concentrations of the drugs of interest. DMSO was used as control. At a suitable interval (varying from 1 minute to 4 days), the media was replaced again with complete RPMI (supplemented with 10% fetal bovine serum and 1% antibiotic) containing MTS dye (Invitrogen Inc.) and incubated for a period varying from 10 minutes to 1 day. The absorbance of the media was read at varying wavelengths, advantageously at […] in an ELISA reader.
(§1) Viability of cell lines (ECC-1, AN3CA, RL-95-2, SKOV-3, PC-3, MCF-7, SMSKCNR and TCL-1) before and after MeTC7 treatment was determined by the CellTiter 96® AQueous One Solution Assay (Promega Corp, Madison, Wisc.) following the manufacturer's recommendations. This colorimetric assay is based on the ability of mitochondria to reduce a substrate [MTS, 3-(4,5-dimethylthiazol-2-yl)-5-(3-carboxymethoxy phenyl)-2-(4-sulfophenyl)-2H-tetrazolium] into a soluble formazan product quantified by measuring the absorbance at 490 nm. […] The samples were incubated for an additional 4 h before absorbance was measured at 490 nm in an ELISA plate reader (Thermo Labsystems, Waltham, Mass.). […]

HUVEC cells = assay: wound healing (scratch) assay with HUVEC cells; type: cell-based; settings: 500 nMoles, 24 hours
Description: A 24-well plate was coated with 100 µL of sterile 1% gelatin solution per well. After gelatin coating was hardened, about 100,000 HUVEC cells were seeded per well and allowed to grow to 100% confluence in EBM-2 media. A […] tip was then used to create a vertical scratch wound down the center of each well, and cells were washed once with fresh EBM-2 media. Cell monolayers were then imaged at a 0 h time point using light microscopy on an inverted microscope under sterile conditions. Wound areas were imaged again using light microscopy, and areas were demarcated on representative images.
Floating cells were removed and media was replaced with HUVEC cell media supplemented with vehicle or Compound (3) (500 nMoles) and incubated for 24 hours. The cells were imaged using a pre-cooled inverted NICON microscope (40×).

ECC-1 cells = assay: MTS cell viability assay, ECC-1; type: cell-based; settings: FIG. 3
Description: ECC-1 cells were seeded (10,000 cells/well) in complete RPMI (supplemented with 10% fetal bovine serum and 1% antibiotic) and allowed to adhere over night. Media was replaced with a fresh complete RPMI media containing varying concentrations of Compound (3). DMSO was used as control. At suitable intervals (varying from 1 minute to 4 days), the media was replaced again with complete RPMI (supplemented with 10% fetal bovine serum and 1% antibiotic) containing MTS dye (Invitrogen Inc) and incubated for period (varying from 10 min to 1 day). The absorbance of the media was read at varying wavelengths, advantageously at […] in an ELISA reader.
as §1, with “nm. The resulting OD is directly proportional to the number of living cells.” for “nm.”

[4] = test system: SKOV-3 and OVCAR-8 ovarian cancer cells; assay: apoptosis detection (TUNEL, cytochrome-C release) in ovarian cancer cells; type: cell-based
Description: SKOV -3 and OVCAR-8 ovarian cancer cells (10,000 per well) were seeded in a 8 well slide chamber in DMEM complete media and allowed to incubate overnight. Cells were treated with complete media containing either vehicle or MeTC7 (500 nM) and incubated for 12 hours in a humidified incubator maintained at standard conditions. DNA fragmentation was detected using the DeadEndTM Fluorometric TUNEL System assay (Promega, Madison, Wisc.) according to the manufacturer's recommendations. Fluorescence of apoptotic cells (green; labeling of DNA nicks by fluorescein-12-dUTP) and of chromatin (red; staining of chromatin with propidium iodide) was detected by fluorescence microscopy with an inverted microscope (Nikon Eclipse TE2000-E) and a 10× objective. Four randomly chosen microscopic fields were captured. For the detection of the cytochrome-C release as a marker of the apoptosis, the cells were fixed in 5% cold formalin solution and cells were stained with cytochrome-C primary antibody (Santa Cruz Biotechnology, USA) and corresponding fluroescence linked secondary antibody. The images were recorded using an inverted microscope. At least five field were arbitrarily scoped.

[5] = test system: rat aorta rings (microcapillary formation); assay: ex vivo rat aorta ring assay; settings: 24 hour treatment, FIG. 9
Description: Rat aorta were harvested from the freshly euthanized naïve rats, cleaned and cut into fine rings and placed on matrigel beds prepared 30 min earlier in a 6 well plate. […] The media was replaced with fresh supplemented media and allowed the incubation for next 48 hours, thus affording a strong network of the microcappilary network. […] The phase contrast images were recorded on a pre-cooled inverted NICON microscope.

[6] = test system: various cancer cell lines; assay: viability of a panel of cancer cell lines (CellTiter 96 MTS); type: cell-based; settings: FIGS. 11A-11C
Description: Viability of cell lines (ECC-1, AN3CA, RL-95-2, SKOV-3, PC-3, MCF-7, SMSKCNR and TCL-1) before and after MeTC7 treatment was determined by the CellTiter 96® AQueous One Solution Assay (Promega Corp, Madison, Wisc.) following the manufacturer's recommendations. This colorimetric assay is based on the ability of mitochondria to reduce a substrate [MTS, 3-(4,5-dimethylthiazol-2-yl)-5-(3-carboxymethoxy phenyl)-2-(4-sulfophenyl)-2H-tetrazolium] into a soluble formazan product quantified by measuring the absorbance at 490 nm. The resulting OD is directly proportional to the number of living cells. Briefly, cells (5×10^3/well) were plated into 96 well flat bottom plates (Corning, Inc., Coming, N.Y.) before treatment with various drugs or vehicle (DMSO) as indicated. Following incubation at 37° C. in a cell culture incubator for 20 h MTS reagent was added at a 1:10 dilution to the medium. The samples were incubated for an additional 4 h before absorbance was measured at 490 nm in an ELISA plate reader (Thermo Labsystems, Waltham, Mass.). Experiments were performed in triplicates; data are expressed as the mean of the triplicate determinations (X±SD) of a representative experiment in % of absorbance by samples with untreated cells [=100%]. Similarly, the cell viability of HEPG2 and HEK293 cells was determined except that the drug concentrations were used in the logarithmic values.

SKOV-3 tumor xenographs = assay: SKOV-3 tumor xenograft in nude mice; type: in vivo
Description: The effects of exemplary compounds of the invention on the growth of SKOV-3 tumor xenographs in nude mice were investigated. Substantively, four- to six week-old immunodeficient nude mice (NU/NU; strain code 088/homozygous) (Charles River Laboratories, Wilmington, Mass.) were maintained at a temperature of 22±1° C. and a relative humidity of 55±5%, with a 12 h light/dark cycle. SKOV-3 cells were cultured to 80% confluence, washed in PBS twice, harvested by hypsination, pooled in complete medium, washed in PBS twice, and 2×10^6 cells/inoculate were suspended in 0.1 ml of matrigel and inoculated subcutaneously in the flank of mice. Mice with developing tumors after two weeks were randomly assigned to experimental groups. Compound (3) was prepared as a stock solution of 1 mM in 100% EtOH and diluted 1:40 in PBS for administration. […] Mice were weighed and tumor size caculated using a caliper every 5 days.
Four to six week-old immunodeficient nude mice (NU/NU; strain code 088/homozygous) (Charles River Laboratories, Wilmington, Mass.) were maintained at a temperature of −22° C. and a relative humidity of ˜55%, with a 12 h light/dark cycle. […]

## CC(C)CCC[C@@H](C)[C@H]1CC[C@H]2C34C=CC5(C[C@@H](OC(=O)CBr)CC[C@]5(C)[C@H]3CC[C@]12C)n1c(=O)n(C)c(=O)n14 (stereo partly shown) [Compound (3)]
SKOV-3 cells [1]
  lipids appearing at 10.06 minutes (HPLC): significantly reduced
[2]
  cytotoxic effects after ascorbic acid pretreatment: reduced the cytotoxic effects
VDR-LBD; FIGS. 10A-10F
  VDR antagonism, selectivity: selective Vitamin D nuclear receptor (VDR) antagonists
VDR-LBD; in the absence of calcitriol
  VDR agonism (coactivator recruitment): not a VDR agonist
DAOY cells xenograft
  growth of medulloblastoma xenografts: reduce the growth of medulloblastoma xenografts in animals
A2058 cells xenograft
  growth of BRAF mutant melanoma xenografts: reduce the growth of BRAF mutant melanoma xenografts in animals
A2058 cells xenograft; Kaplan-Meier
  survival of animals with melanoma xenografts: extend survival in these animals
SKOV-3 cells [3]
  cell viability of SKOV-3 cells: reduction in cell viability
HUVEC cells
  recovery of the scratched area: failed to recover and repopulate the scratched area
ECC-1 cells
  cell viability of ECC-1 cells: reduction in cell viability
[4]; 500 nM, 12 hours
  cytochrome-C release: abundant cytochrome-C release in the cytosol
[4]; FIGS. 11D-11E
  apoptosis: cause apoptosis
[5]
  capillary formation and outgrowth: inhibited capillary formation and outgrowth
[6]
  growth of cancer cell lines: block growth of various cancer cell lines
SKOV-3 tumor xenographs; 10 mg/kg bwt i.p. every other day, 40 days, FIG. 7
  tumor burden: reduces the tumor burden
SKOV-3 tumor xenographs; 10 mg/kg bwt i.p., 5× week, 31 days, FIG. 11F
  growth of ovarian cancer xenografts: reduce the growth of ovarian cancer xenografts in animals
